Assay results as given in ChEMBL document CHEMBL4823296, “NMR-Guided Design of Potent and Selective EphA4 Agonistic Ligands” (J Med Chem, 2021).
Non-standard residues stand in square brackets, D forms with d. Residues, ends and D or L forms follow the SMILES beside them. *: point of attachment. Phe(4-(2-MeO-Ph)) = COc1ccccc1-c1ccc(C[C@H](N)C(=O)O)cc1; Cyclohexanoyl(1S,3S-3-NH2) = N[C@H]1CCC[C@H](C(=O)*)C1; Phe(4-guanidino) = N=C(N)Nc1ccc(C[C@H](N)C(=O)O)cc1; Trp(6-OMe) = COc1ccc2c(C[C@H](N)C(=O)O)c[nH]c2c1; Trp(5-OH) = N[C@@H](Cc1c[nH]c2ccc(O)cc12)C(=O)O; NHPh(4-CH2-morpholino) = c1cc(N*)ccc1CN1CCOCC1; NH(4-morpholinophenyl) = c1cc(N2CCOCC2)ccc1N*; Trp(7-aza) = N[C@@H](Cc1c[nH]c2ncccc12)C(=O)O; Bip = N[C@@H](Cc1ccc(-c2ccccc2)cc1)C(=O)O; 1Nal = N[C@@H](Cc1cccc2ccccc12)C(=O)O; 2Nal = N[C@@H](Cc1ccc2ccccc2c1)C(=O)O; d(hArg) = N=C(N)NCCCC[C@@H](N)C(=O)O; hArg = N=C(N)NCCCC[C@H](N)C(=O)O; X4 = COc1cc(CN*)cc(OC)c1; NHPh = c1ccc(N*)cc1; GABA = NCCCC(=O)O; X1 = Oc1ccccc1CN*; X2 = Oc1ccccc1N*; X3 = Oc1cccnc1N*

Legend:
Ephrin type-A receptor 4 [1] = target: T1, Ephrin type-A receptor 4 (Homo sapiens, UniProt P54764)
Description: Binding affinity to N-terminal His tagged EphA4 LBD (unknown origin) (29 to 209 residues) expressed in Rosetta-Gami B(DE3) cells assessed as change in enthalpy by isothermal titration calorimetry

Ephrin type-A receptor 4 [2] = target: T1, Ephrin type-A receptor 4; remark: listed apart in the source
Description: Binding affinity to N-terminal His tagged EphA4 LBD (unknown origin) (29 to 209 residues) expressed in Rosetta-Gami B(DE3) cells assessed as change in entropy by isothermal titration calorimetry

Ephrin type-A receptor 4 [3] = target: T1, Ephrin type-A receptor 4; assay: Binding affinity to N-terminal His tagged EphA4 LBD (unknown origin) (29 to 209 residues) expressed in Rosetta-Gami B(DE3) cells by isothermal titration calorimetry
Ephrin type-A receptor 2 = Ephrin type-A receptor 2 (Homo sapiens, UniProt P29317); assay: Binding affinity to N-terminal His tagged EphA2 LBD (27 to 200 residues) (unknown origin) expressed in Origami (DE3) cells by isothermal titration calorimetry
[4] = Aqueous solubility of compound; assay type: physicochemical; conditions: buffer

T1 sequence (P54764 whole entry): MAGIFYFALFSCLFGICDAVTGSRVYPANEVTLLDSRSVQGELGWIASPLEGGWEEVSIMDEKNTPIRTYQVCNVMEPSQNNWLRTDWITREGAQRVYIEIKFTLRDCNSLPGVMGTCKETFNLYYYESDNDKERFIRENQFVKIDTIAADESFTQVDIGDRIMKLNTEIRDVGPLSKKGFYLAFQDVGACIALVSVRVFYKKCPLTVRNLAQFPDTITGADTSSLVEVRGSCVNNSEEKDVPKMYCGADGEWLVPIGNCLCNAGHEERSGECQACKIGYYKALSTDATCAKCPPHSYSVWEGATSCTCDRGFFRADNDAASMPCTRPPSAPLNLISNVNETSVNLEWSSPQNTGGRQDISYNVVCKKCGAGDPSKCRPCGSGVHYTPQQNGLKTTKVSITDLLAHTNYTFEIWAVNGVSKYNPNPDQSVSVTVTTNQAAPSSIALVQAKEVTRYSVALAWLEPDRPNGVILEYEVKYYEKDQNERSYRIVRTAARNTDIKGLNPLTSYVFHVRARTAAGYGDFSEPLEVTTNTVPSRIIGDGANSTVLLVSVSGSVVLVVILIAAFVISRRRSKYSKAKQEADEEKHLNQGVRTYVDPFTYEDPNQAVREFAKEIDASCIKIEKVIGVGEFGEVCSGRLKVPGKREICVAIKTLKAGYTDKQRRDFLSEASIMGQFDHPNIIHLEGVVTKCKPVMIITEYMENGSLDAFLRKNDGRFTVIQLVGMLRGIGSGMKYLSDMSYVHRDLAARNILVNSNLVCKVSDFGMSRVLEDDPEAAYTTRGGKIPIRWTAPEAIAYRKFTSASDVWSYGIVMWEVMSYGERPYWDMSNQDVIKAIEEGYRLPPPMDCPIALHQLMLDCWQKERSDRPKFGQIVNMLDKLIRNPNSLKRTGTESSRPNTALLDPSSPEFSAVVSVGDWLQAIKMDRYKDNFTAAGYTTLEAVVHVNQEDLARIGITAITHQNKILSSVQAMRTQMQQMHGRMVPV
Chain of Ephrin type-A receptor 2 (P29317 whole entry, the tested form may be a part): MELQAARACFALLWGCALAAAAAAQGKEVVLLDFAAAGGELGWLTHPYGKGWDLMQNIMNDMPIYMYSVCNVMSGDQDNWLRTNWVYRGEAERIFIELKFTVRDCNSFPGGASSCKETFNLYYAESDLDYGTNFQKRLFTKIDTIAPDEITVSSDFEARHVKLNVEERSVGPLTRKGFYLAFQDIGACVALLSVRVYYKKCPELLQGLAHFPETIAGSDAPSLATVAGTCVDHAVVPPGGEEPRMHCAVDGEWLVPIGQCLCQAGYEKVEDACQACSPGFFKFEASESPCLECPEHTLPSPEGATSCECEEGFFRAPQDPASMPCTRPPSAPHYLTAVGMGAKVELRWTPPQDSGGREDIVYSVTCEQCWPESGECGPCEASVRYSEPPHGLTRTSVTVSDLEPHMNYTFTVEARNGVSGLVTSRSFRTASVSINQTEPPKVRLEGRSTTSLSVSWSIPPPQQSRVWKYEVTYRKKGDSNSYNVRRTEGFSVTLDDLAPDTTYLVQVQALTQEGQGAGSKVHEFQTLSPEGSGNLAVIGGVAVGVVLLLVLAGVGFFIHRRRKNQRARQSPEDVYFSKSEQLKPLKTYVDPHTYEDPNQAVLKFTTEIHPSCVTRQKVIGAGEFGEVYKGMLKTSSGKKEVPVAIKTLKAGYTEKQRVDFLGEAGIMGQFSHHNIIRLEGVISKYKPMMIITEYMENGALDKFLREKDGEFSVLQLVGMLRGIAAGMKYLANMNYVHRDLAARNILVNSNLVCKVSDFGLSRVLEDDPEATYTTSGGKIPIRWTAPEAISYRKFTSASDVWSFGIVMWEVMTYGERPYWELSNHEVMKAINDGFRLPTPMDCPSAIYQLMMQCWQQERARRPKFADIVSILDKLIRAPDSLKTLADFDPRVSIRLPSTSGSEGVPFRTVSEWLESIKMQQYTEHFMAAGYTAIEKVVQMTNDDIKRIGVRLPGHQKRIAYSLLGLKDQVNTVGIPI

Row | SMILES | deltaH (Ephrin type-A receptor 4 [1]) [kcal/mol] | -TdeltaS (Ephrin type-A receptor 4 [2]) [kcal/mol] | Kd (Ephrin type-A receptor 4 [3]) [nM] | Kd (Ephrin type-A receptor 2) | solubility [4] [mM]
1 | N=C(N)NCCCC[C@H](NC(=O)[C@H](Cc1ccc(-c2ccccc2)cc1)NC(=O)[C@H](Cc1c[nH]c2ccc(O)cc12)NC(=O)[C@@H]1CCC[C@@H](N)C1)C(N)=O | -9.39 | 1.32 | 1210 | – | –
2 | N=C(N)NCCCC[C@@H](NC(=O)[C@H](Cc1ccc(-c2ccccc2)cc1)NC(=O)[C@H](Cc1c[nH]c2ccccc12)NC(=O)CCCN)C(N)=O (H-[GABA]W[Bip][d(hArg)]-NH2) | -9.26 | 0.3 | 270 | – | –
3 | COc1ccccc1-c1ccc(C[C@H](NC(=O)[C@H](Cc2c[nH]c3ccc(O)cc23)NC(=O)[C@H]2CCC[C@H](N)C2)C(=O)N[C@@H](CCCCNC(=N)N)C(=O)NCC(=O)Nc2ccc(CN3CCOCC3)cc2)cc1 ({Cyclohexanoyl(1S,3S-3-NH2)}-[Trp(5-OH)][Phe(4-(2-MeO-Ph))][hArg]G-{NHPh(4-CH2-morpholino)}) | – | – | 77 | Not Active | > 50
4 | N=C(N)NCCCC[C@H](NC(=O)[C@H](Cc1ccc(-c2ccccc2)cc1)NC(=O)[C@H](Cc1c[nH]c2ccc(O)cc12)NC(=O)CCCN)C(=O)NCC(=O)Nc1ccccc1O (H-[GABA][Trp(5-OH)][Bip][hArg]G-X2) | -12 | 2.88 | 191 | – | –
5 | N=C(N)NCCCC[C@H](NC(=O)[C@H](Cc1ccc(-c2ccccc2)cc1)NC(=O)[C@H](Cc1c[nH]c2ccc(O)cc12)NC(=O)CCCN)C(=O)NCC(=O)Nc1ccc(N2CCOCC2)cc1 (H-[GABA][Trp(5-OH)][Bip][hArg]G-{NH(4-morpholinophenyl)}) | -11.2 | 1.63 | 94 | – | –
6 | N=C(N)NCCCC[C@H](NC(=O)[C@H](Cc1cccc2ccccc12)NC(=O)[C@H](Cc1c[nH]c2ccc(O)cc12)NC(=O)CCCN)C(N)=O (H-[GABA][Trp(5-OH)][1Nal][hArg]-NH2) | -8.22 | 1.46 | – | – | –
7 | COc1cc(CNC(=O)CNC(=O)[C@H](CCCCNC(=N)N)NC(=O)[C@H](Cc2ccc(-c3ccccc3)cc2)NC(=O)[C@H](Cc2c[nH]c3ccc(O)cc23)NC(=O)CCCN)cc(OC)c1 (H-[GABA][Trp(5-OH)][Bip][hArg]G-X4) | -11.3 | 2.39 | 307 | – | –
8 | N=C(N)NCCCC[C@H](NC(=O)[C@H](Cc1ccc(-c2ccccc2)cc1)NC(=O)[C@H](Cc1c[nH]c2ccccc12)NC(=O)CCN)C(N)=O (HELM PEPTIDE1{[bAla].W.[O=C([C@H](Cc1ccc(-c2ccccc2)cc1)N[*:1])[*:2]].[N=C(N)NCCCC[C@H](N[*:1])C(=O)[*:2]].[am]}$$$$V2.0) | -11.5 | 3.77 | 2130 | – | –
9 | N=C(N)NCCCC[C@H](NC(=O)[C@H](Cc1ccc(-c2ccccc2)cc1)NC(=O)[C@H](Cc1c[nH]c2ccc(O)cc12)NC(=O)CCCN)C(=O)NCC(=O)NCc1ccccc1O (H-[GABA][Trp(5-OH)][Bip][hArg]G-X1) | -12 | 3 | 258 | – | –
10 | N=C(N)NCCCC[C@H](NC(=O)[C@H](Cc1ccc2ccccc2c1)NC(=O)[C@H](Cc1c[nH]c2ccc(O)cc12)NC(=O)CCCN)C(N)=O (H-[GABA][Trp(5-OH)][2Nal][hArg]-NH2) | -8.49 | 1.27 | 5250 | – | –
11 | COc1ccc2c(C[C@H](NC(=O)CCCN)C(=O)N[C@@H](Cc3ccc(-c4ccccc4)cc3)C(=O)N[C@@H](CCCCNC(=N)N)C(N)=O)c[nH]c2c1 (H-[GABA][Trp(6-OMe)][Bip][hArg]-NH2) | -10.5 | 2.84 | 2460 | – | –
12 | N=C(N)NCCCC[C@H](NC(=O)[C@H](Cc1ccc(-c2ccccc2)cc1)NC(=O)[C@H](Cc1c[nH]c2ccc(O)cc12)NC(=O)[C@H]1CCC[C@H](N)C1)C(=O)NCC(=O)Nc1ccc(CN2CCOCC2)cc1 ({Cyclohexanoyl(1S,3S-3-NH2)}-[Trp(5-OH)][Bip][hArg]G-{NHPh(4-CH2-morpholino)}) | – | – | 144 | Not Active | > 50
13 | N=C(N)NCCCC[C@H](NC(=O)[C@H](Cc1ccc(-c2ccccc2)cc1)NC(=O)[C@H](Cc1c[nH]c2ccccc12)NC(=O)CCCN)C(N)=O (H-[GABA]W[Bip][hArg]-NH2) | -10.7 | 2.27 | 663 | – | –
14 | C[C@H](N)C(=O)N[C@@H](Cc1c[nH]c2ccccc12)C(=O)N[C@@H](Cc1ccc(-c2ccccc2)cc1)C(=O)N[C@@H](CCCCNC(=N)N)C(N)=O (HELM PEPTIDE1{A.W.[O=C([C@H](Cc1ccc(-c2ccccc2)cc1)N[*:1])[*:2]].[N=C(N)NCCCC[C@H](N[*:1])C(=O)[*:2]].[am]}$$$$V2.0) | -9.54 | 2.01 | 3020 | – | –
15 | N=C(N)NCCCC[C@H](NC(=O)[C@H](Cc1ccc(-c2ccc(Cl)cc2)cc1)NC(=O)[C@H](Cc1c[nH]c2ccc(O)cc12)NC(=O)CCCN)C(N)=O | -10.4 | 2 | 749 | – | –
16 | NCCCC[C@H](NC(=O)[C@H](Cc1ccc(-c2ccccc2)cc1)NC(=O)[C@H](Cc1c[nH]c2ccc(O)cc12)NC(=O)CCCN)C(N)=O (H-[GABA][Trp(5-OH)][Bip]K-NH2) | -11.2 | 2.54 | 437 | – | –
17 | N=C(N)NCCCC[C@H](NC(=O)[C@H](Cc1ccc(-c2ccccc2)cc1)NC(=O)[C@H](Cc1c[nH]c2ccc(O)cc12)NC(=O)CCCN)C(=O)NCC(=O)Nc1ncccc1O (H-[GABA][Trp(5-OH)][Bip][hArg]G-X3) | -9.48 | 0.86 | 488 | – | –
18 | N=C(N)NCCC[C@H](NC(=O)[C@H](Cc1ccc(-c2ccccc2)cc1)NC(=O)[C@H](Cc1c[nH]c2ccc(O)cc12)NC(=O)CCCN)C(N)=O (H-[GABA][Trp(5-OH)][Bip]R-NH2) | -11 | 2.35 | 459 | – | –
19 | N=C(N)NCCCC[C@H](NC(=O)[C@H](Cc1ccc(-c2ccccc2)cc1)NC(=O)[C@H](Cc1c[nH]c2ccc(O)cc12)NC(=O)CCCN)C(=O)NCC(=O)Nc1ccccc1 (H-[GABA][Trp(5-OH)][Bip][hArg]G-NHPh) | -12.3 | 2.87 | 132 | – | –
20 | N=C(N)NCCCC[C@H](NC(=O)[C@H](Cc1ccc(-c2ccccc2)cc1)NC(=O)[C@H](Cc1c[nH]c2ccc(O)cc12)NC(=O)CCCN)C(=O)NCC(=O)Nc1ccc(CN2CCOCC2)cc1 (H-[GABA][Trp(5-OH)][Bip][hArg]G-{NHPh(4-CH2-morpholino)}) | -10.6 | 1.05 | 106 | – | –
21 | COc1ccccc1-c1ccc(C[C@H](NC(=O)[C@H](Cc2c[nH]c3ccc(O)cc23)NC(=O)[C@H]2CCC[C@H](N)C2)C(=O)N[C@@H](CCCCNC(=N)N)C(=O)NCC(=O)Nc2ccc(N3CCOCC3)cc2)cc1 ({Cyclohexanoyl(1S,3S-3-NH2)}-[Trp(5-OH)][Phe(4-(2-MeO-Ph))][hArg]G-{NH(4-morpholinophenyl)}) | – | – | 106 | Not Active | > 50
22 | N=C(N)Nc1ccc(C[C@H](NC(=O)[C@H](Cc2ccc(-c3ccccc3)cc2)NC(=O)[C@H](Cc2c[nH]c3ccccc23)NC(=O)CCCN)C(N)=O)cc1 (H-[GABA]W[Bip][Phe(4-guanidino)]-NH2) | -9.43 | 1.33 | 1160 | – | –
23 | N=C(N)NCCCC[C@H](NC(=O)[C@H](Cc1ccc(-c2ccccc2)cc1)NC(=O)[C@H](Cc1c[nH]c2ccc(O)cc12)NC(=O)[C@@H]1CC[C@@H](N)C1)C(N)=O | -9.82 | 1.46 | 740 | – | –
24 | N=C(N)NCCCC[C@H](NC(=O)[C@H](Cc1ccc(-c2ccccc2)cc1)NC(=O)[C@H](Cc1c[nH]c2ncccc12)NC(=O)CCCN)C(N)=O (H-[GABA][Trp(7-aza)][Bip][hArg]-NH2) | -7.27 | 0.74 | 16300 | – | –
25 | N=C(N)NCCCC[C@H](NC(=O)[C@H](Cc1ccc(-c2ccccc2)cc1)NC(=O)[C@H](Cc1c[nH]c2ccc(O)cc12)NC(=O)[C@H]1CC[C@H](N)C1)C(N)=O | -8.33 | 0.21 | 1120 | – | –
26 | Cc1ccc(-c2ccc(C[C@H](NC(=O)[C@H](Cc3c[nH]c4ccc(O)cc34)NC(=O)CCCN)C(=O)N[C@@H](CCCCNC(=N)N)C(N)=O)cc2)cc1 | -10.2 | 1.77 | 708 | – | –
27 | Cc1ccccc1-c1ccc(C[C@H](NC(=O)[C@H](Cc2c[nH]c3ccc(O)cc23)NC(=O)CCCN)C(=O)N[C@@H](CCCCNC(=N)N)C(N)=O)cc1 | -12.1 | 3.29 | 362 | – | –
28 | N=C(N)NCCCC[C@H](NC(=O)[C@H](Cc1ccc(-c2ccccc2)cc1)NC(=O)[C@H](Cc1c[nH]c2ccc(O)cc12)NC(=O)[C@H]1CCC[C@H](N)C1)C(N)=O | -8.1 | -0.67 | 370 | – | –
